Measurements published in ChEMBL document CHEMBL5131431, “Effect of removal of the 14-hydroxy group on the affinity of the 4,5-epoxymorphinan derivatives for orexin and opioid receptors” (Bioorg Med Chem Lett, 2022).

Key:
[1] = biological target: Delta-type opioid receptor (Homo sapiens, UniProt P41143); assay: Displacement of […] from human DOR expressed in HEK293 cell membrane; type: cell membranes
[2] = biological target: T1, Orexin/Hypocretin receptor type 1 (Homo sapiens, UniProt O43613); assay: Binding affinity to OX1R (unknown origin) by calcium assay
T1 sequence (O43613 whole entry): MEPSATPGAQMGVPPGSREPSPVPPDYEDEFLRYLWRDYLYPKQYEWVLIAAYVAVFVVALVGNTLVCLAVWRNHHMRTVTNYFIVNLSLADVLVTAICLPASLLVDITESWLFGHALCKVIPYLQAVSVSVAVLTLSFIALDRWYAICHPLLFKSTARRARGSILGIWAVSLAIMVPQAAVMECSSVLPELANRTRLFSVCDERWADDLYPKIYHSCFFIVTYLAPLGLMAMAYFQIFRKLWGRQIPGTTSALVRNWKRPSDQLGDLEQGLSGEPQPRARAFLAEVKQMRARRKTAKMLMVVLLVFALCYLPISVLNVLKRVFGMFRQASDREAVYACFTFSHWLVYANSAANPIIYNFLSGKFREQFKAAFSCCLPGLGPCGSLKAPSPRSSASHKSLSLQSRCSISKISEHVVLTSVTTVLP

Mu-type opioid receptor = Mu-type opioid receptor (Homo sapiens, UniProt P35372); assay: Displacement of [3H]DAMGO from human MOR expressed in HEK293 cell membrane; type: cell membranes
Chain of Mu-type opioid receptor (P35372 whole entry): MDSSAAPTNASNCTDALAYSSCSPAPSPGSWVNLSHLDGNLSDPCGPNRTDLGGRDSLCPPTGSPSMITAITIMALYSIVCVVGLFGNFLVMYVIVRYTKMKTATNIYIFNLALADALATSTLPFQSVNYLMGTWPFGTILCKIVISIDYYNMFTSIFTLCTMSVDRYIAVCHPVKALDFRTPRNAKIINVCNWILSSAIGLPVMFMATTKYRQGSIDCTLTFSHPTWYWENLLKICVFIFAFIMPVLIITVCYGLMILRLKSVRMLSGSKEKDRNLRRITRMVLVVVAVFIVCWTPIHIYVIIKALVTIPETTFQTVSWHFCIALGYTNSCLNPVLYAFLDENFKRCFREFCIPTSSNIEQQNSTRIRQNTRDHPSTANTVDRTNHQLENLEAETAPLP

[3] = biological target: Kappa-type opioid receptor (Homo sapiens, UniProt P41145); assay: Displacement of […] from human KOR expressed in HEK293 cell membrane; type: cell membranes
Chain of Kappa-type opioid receptor (P41145 whole entry): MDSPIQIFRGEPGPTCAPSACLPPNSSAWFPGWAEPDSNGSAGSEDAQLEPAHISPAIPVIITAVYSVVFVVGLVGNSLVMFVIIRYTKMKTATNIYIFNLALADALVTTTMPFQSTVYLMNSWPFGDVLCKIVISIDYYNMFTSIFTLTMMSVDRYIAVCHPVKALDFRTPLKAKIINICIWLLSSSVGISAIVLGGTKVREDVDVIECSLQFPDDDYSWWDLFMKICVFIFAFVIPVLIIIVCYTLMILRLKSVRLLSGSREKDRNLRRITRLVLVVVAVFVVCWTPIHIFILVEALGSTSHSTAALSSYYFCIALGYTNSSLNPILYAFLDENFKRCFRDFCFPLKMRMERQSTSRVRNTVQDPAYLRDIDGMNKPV

Homo sapiens [4] = species on record: Homo sapiens; assay: Selectivity index, ratio of Ki for displacement of […] from human DOR expressed in HEK293 cell membrane to displacement of […] from human KOR expressed in HEK293 cell membrane
Homo sapiens [5] = species on record: Homo sapiens; assay: Selectivity index, ratio of Ki for displacement of [3H]DAMGO from human MOR expressed in HEK293 cell membrane to displacement of […] from human KOR expressed in HEK293 cell membrane

Chain of Delta-type opioid receptor (P41143 whole entry): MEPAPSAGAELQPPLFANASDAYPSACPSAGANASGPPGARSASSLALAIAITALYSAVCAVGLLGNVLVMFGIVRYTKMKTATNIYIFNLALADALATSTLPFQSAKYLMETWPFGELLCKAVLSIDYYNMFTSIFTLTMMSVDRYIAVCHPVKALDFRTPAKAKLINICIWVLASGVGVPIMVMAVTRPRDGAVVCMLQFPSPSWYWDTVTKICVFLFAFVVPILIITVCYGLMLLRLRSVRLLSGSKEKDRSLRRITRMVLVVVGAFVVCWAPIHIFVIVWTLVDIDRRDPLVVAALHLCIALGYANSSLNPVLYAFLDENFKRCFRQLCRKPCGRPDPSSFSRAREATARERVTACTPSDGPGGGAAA

SMILES | Ki [1] | Ki [2] | Ki (Mu-type opioid receptor) | Ki [3] | Ratio Ki (Homo sapiens [4]) | Ratio Ki (Homo sapiens [5]) | IC50 [2]
CN(C(=O)/C=C/c1ccoc1)[C@@H]1CC=C2[C@H]3Cc4ccc(O)c5c4[C@@]2(CCN3CC2CC2)[C@H]1O5 | 26.3 nM | 30.5 nM | 3.57 nM | 0.0356 nM | 739 | 100 | –
COc1ccc2c3c1O[C@H]1[C@H](N(C)C(=O)/C=C/c4ccoc4)CC=C4[C@@H](C2)N(CC2CC2)C[C@]431 | – | – | – | – | – | – | > 10000 nM
CN(C(=O)/C=C/c1ccoc1)[C@@H]1CCC2[C@H]3Cc4ccc(O)c5c4[C@@]2(CN3CC2CC2)[C@H]1O5 (some centres undefined) | > 10000 nM | – | > 10000 nM | 283 nM | – | – | > 10000 nM
CN(C(=O)/C=C/c1ccoc1)[C@@H]1CC[C@@]2(O)[C@H]3Cc4ccc(O)c5c4[C@@]2(CN3CC2CC2)[C@H]1O5 | > 5000 nM | – | > 5000 nM | > 5000 nM | – | – | –
COc1ccc2c3c1O[C@H]1[C@H](N(C)C(=O)/C=C/c4ccoc4)CCC4[C@@H](C2)N(CC2CC2)CC[C@@]341 (some centres undefined) | – | 28.7 nM | – | – | – | – | –
CN(C(=O)/C=C/c1ccoc1)[C@@H]1CC[C@@]2(O)[C@H]3Cc4ccc(O)c5c4[C@@]2(CCN3CC2CC2)[C@H]1O5 [NALFURAFINE] | 36.5 nM | – | 0.7 nM | – | – | – | –
CN(C(=O)/C=C/c1ccoc1)[C@@H]1CC=C2[C@H]3Cc4ccc(O)c5c4[C@@]2(CN3CC2CC2)[C@H]1O5 | > 10000 nM | – | > 10000 nM | 1410 nM | – | – | > 10000 nM
COc1ccc2c3c1O[C@H]1[C@H](N(C)C(=O)/C=C/c4ccoc4)CC=C4[C@@H](C2)N(CC2CC2)CC[C@]431 | – | 19 nM | – | – | – | – | –
COc1ccc2c3c1O[C@H]1[C@H](N(C)C(=O)/C=C/c4ccoc4)CCC4[C@@H](C2)N(CC2CC2)C[C@@]341 (some centres undefined) | – | – | – | – | – | – | > 10000 nM
CN(C(=O)/C=C/c1ccoc1)[C@@H]1CCC2[C@H]3Cc4ccc(O)c5c4[C@@]2(CCN3CC2CC2)[C@H]1O5 (some centres undefined) | 9.76 nM | 218 nM | 0.158 nM | 0.0272 nM | 359 | 5.8 | –
